Assay results reported in PubChem BioAssay (NCI).
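Results reflect a 48-hour exposure of cells in 96-well plates to compound at five concentrations. The concentration for full growth arrest is given as TGI.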

Columns and labels:
Test in all cases: NCI-60 cell line screen, 48 h
NCI-H460 lung = test system: NCI-H460 lung
EKVX NSCLC = test system: EKVX NSCLC
UACC-62 melanoma = test system: UACC-62 melanoma
DLD-1 colon = test system: DLD-1 colon
KM20L2 colon = test system: KM20L2 colon
DMS 273 small cell lung = test system: DMS 273 small cell lung
OVCAR-5 ovarian = test system: OVCAR-5 ovarian
SNB-78 CNS = test system: SNB-78 CNS
LOX IMVI melanoma = test system: LOX IMVI melanoma
MALME-3M melanoma = test system: MALME-3M melanoma
OVCAR-8 ovarian = test system: OVCAR-8 ovarian
M14 melanoma = test system: M14 melanoma
HOP-92 NSCLC = test system: HOP-92 NSCLC
CCRF-CEM leukemia = test system: CCRF-CEM leukemia
SNB-19 CNS = test system: SNB-19 CNS
SR leukemia = test system: SR leukemia
OVCAR-4 ovarian = test system: OVCAR-4 ovarian
IGROV1 ovarian = test system: IGROV1 ovarian
HCT-15 colon = test system: HCT-15 colon
OVCAR-3 ovarian = test system: OVCAR-3 ovarian
DMS 114 small cell lung = test system: DMS 114 small cell lung
U251 CNS = test system: U251 CNS
A549 NSCLC = test system: A549 NSCLC
XF 498 CNS = test system: XF 498 CNS
UACC-257 melanoma = test system: UACC-257 melanoma
SK-MEL-28 melanoma = test system: SK-MEL-28 melanoma
K-562 leukemia = test system: K-562 leukemia
CAKI-1 renal = test system: CAKI-1 renal
UO-31 renal = test system: UO-31 renal
SF-268 CNS = test system: SF-268 CNS
NCI-H23 lung = test system: NCI-H23 lung
SNB-75 CNS = test system: SNB-75 CNS
SW-620 colon = test system: SW-620 colon
HT29 colon = test system: HT29 colon
A498 renal = test system: A498 renal
RXF 393 renal = test system: RXF 393 renal
ACHN renal = test system: ACHN renal
M19-MEL melanoma = test system: M19-MEL melanoma
SF-295 CNS = test system: SF-295 CNS
NCI-H226 lung = test system: NCI-H226 lung
MOLT-4 leukemia = test system: MOLT-4 leukemia
TK-10 renal = test system: TK-10 renal
SN12C renal = test system: SN12C renal
RPMI-8226 leukemia = test system: RPMI-8226 leukemia
HCC-2998 colon = test system: HCC-2998 colon
SK-MEL-2 melanoma = test system: SK-MEL-2 melanoma
786-0 renal = test system: 786-0 renal
SF-539 CNS = test system: SF-539 CNS
LXFL 529 NSCLC = test system: LXFL 529 NSCLC
HL-60(TB) leukemia = test system: HL-60(TB) leukemia
HCT-116 colon = test system: HCT-116 colon
SK-MEL-5 melanoma = test system: SK-MEL-5 melanoma
KM12 colon = test system: KM12 colon
COLO 205 colon = test system: COLO 205 colon
HOP-62 NSCLC = test system: HOP-62 NSCLC
NCI-H522 lung = test system: NCI-H522 lung
SK-OV-3 ovarian = test system: SK-OV-3 ovarian

`O=C(CC1Sc2ccccc2NC1=O)Nc1cccc(Cl)c1` (stereo not given) showed a TGI (NCI-H460 lung) greater than 100 µM, a TGI (EKVX NSCLC) of 84.8 µM and a TGI (UACC-62 melanoma) greater than 100 µM. For the same compound, the TGI (DLD-1 colon) was greater than 100 µM, the TGI (KM20L2 colon) was greater than 100 µM and the TGI (DMS 273 small cell lung) was greater than 100 µM. For the same compound, the TGI (OVCAR-5 ovarian) was greater than 100 µM, the TGI (SNB-78 CNS) was greater than 100 µM and the TGI (LOX IMVI melanoma) was 48.2 µM. For the same compound, the TGI (MALME-3M melanoma) was greater than 100 µM, the TGI (OVCAR-8 ovarian) was 75.8 µM and the TGI (M14 melanoma) was greater than 100 µM. The TGI (HOP-92 NSCLC) was 86.1 µM, the TGI (CCRF-CEM leukemia) was greater than 100 µM and the TGI (SNB-19 CNS) was greater than 100 µM. It also gave a TGI (SR leukemia) of 97.5 µM, a TGI (OVCAR-4 ovarian) greater than 100 µM and a TGI (IGROV1 ovarian) greater than 100 µM. The TGI (HCT-15 colon) was greater than 100 µM, the TGI (OVCAR-3 ovarian) was 86.8 µM and the TGI (DMS 114 small cell lung) was greater than 100 µM. It also gave a TGI (U251 CNS) of 82.8 µM, a TGI (A549 NSCLC) greater than 100 µM and a TGI (XF 498 CNS) of 86.5 µM. It also gave a TGI (UACC-257 melanoma) greater than 100 µM, a TGI (SK-MEL-28 melanoma) of 89.7 µM and a TGI (K-562 leukemia) greater than 100 µM. The TGI (CAKI-1 renal) was greater than 100 µM, the TGI (UO-31 renal) was 82.5 µM and the TGI (SF-268 CNS) was greater than 100 µM. The TGI (NCI-H23 lung) was greater than 100 µM, the TGI (SNB-75 CNS) was greater than 100 µM and the TGI (SW-620 colon) was greater than 100 µM. It also gave a TGI (HT29 colon) greater than 100 µM, a TGI (A498 renal) greater than 100 µM and a TGI (RXF 393 renal) of 80.4 µM. It also gave a TGI (ACHN renal) greater than 100 µM, a TGI (M19-MEL melanoma) greater than 100 µM and a TGI (SF-295 CNS) greater than 100 µM. The TGI (NCI-H226 lung) was 90.8 µM, the TGI (MOLT-4 leukemia) was 57.2 µM and the TGI (TK-10 renal) was greater than 100 µM. It also gave a TGI (SN12C renal) greater than 100 µM, a TGI (RPMI-8226 leukemia) of 69.6 µM and a TGI (HCC-2998 colon) greater than 100 µM. For the same compound, the TGI (SK-MEL-2 melanoma) was greater than 100 µM, the TGI (786-0 renal) was greater than 100 µM and the TGI (SF-539 CNS) was greater than 100 µM. The TGI (LXFL 529 NSCLC) was greater than 100 µM, the TGI (HL-60(TB) leukemia) was greater than 100 µM and the TGI (HCT-116 colon) was greater than 100 µM. It also gave a TGI (SK-MEL-5 melanoma) greater than 100 µM.

In the case of `CN(C)C1(C#N)CCC2(CC1)OCCO2`, the TGI (NCI-H460 lung) is reported as greater than 100 µM, the TGI (KM12 colon) is reported as greater than 100 µM and the TGI (EKVX NSCLC) is reported as greater than 100 µM. It also gave a TGI (UACC-62 melanoma) greater than 100 µM, a TGI (KM20L2 colon) greater than 100 µM and a TGI (DMS 273 small cell lung) greater than 100 µM. The TGI (OVCAR-5 ovarian) was greater than 100 µM, the TGI (SNB-78 CNS) was greater than 100 µM and the TGI (LOX IMVI melanoma) was greater than 100 µM. It also gave a TGI (MALME-3M melanoma) greater than 100 µM, a TGI (OVCAR-8 ovarian) greater than 100 µM and a TGI (M14 melanoma) greater than 100 µM. It also gave a TGI (HOP-92 NSCLC) greater than 100 µM, a TGI (CCRF-CEM leukemia) greater than 100 µM and a TGI (SNB-19 CNS) greater than 100 µM. For the same compound, the TGI (SR leukemia) was greater than 100 µM, the TGI (OVCAR-4 ovarian) was greater than 100 µM and the TGI (IGROV1 ovarian) was greater than 100 µM. For the same compound, the TGI (COLO 205 colon) was greater than 100 µM, the TGI (HCT-15 colon) was greater than 100 µM and the TGI (OVCAR-3 ovarian) was greater than 100 µM. The TGI (U251 CNS) was greater than 100 µM, the TGI (A549 NSCLC) was greater than 100 µM and the TGI (UACC-257 melanoma) was greater than 100 µM. The TGI (SK-MEL-28 melanoma) was greater than 100 µM, the TGI (K-562 leukemia) was greater than 100 µM and the TGI (CAKI-1 renal) was greater than 100 µM. The TGI (UO-31 renal) was greater than 100 µM, the TGI (SF-268 CNS) was greater than 100 µM and the TGI (HOP-62 NSCLC) was greater than 100 µM. It also gave a TGI (NCI-H23 lung) greater than 100 µM, a TGI (SNB-75 CNS) greater than 100 µM and a TGI (NCI-H522 lung) greater than 100 µM. It also gave a TGI (SW-620 colon) greater than 100 µM, a TGI (HT29 colon) greater than 100 µM and a TGI (SK-OV-3 ovarian) greater than 100 µM. For the same compound, the TGI (A498 renal) was greater than 100 µM, the TGI (RXF 393 renal) was greater than 100 µM and the TGI (ACHN renal) was greater than 100 µM. The TGI (M19-MEL melanoma) was greater than 100 µM, the TGI (SF-295 CNS) was greater than 100 µM and the TGI (NCI-H226 lung) was greater than 100 µM. The TGI (MOLT-4 leukemia) was greater than 100 µM, the TGI (TK-10 renal) was greater than 100 µM and the TGI (SN12C renal) was greater than 100 µM. For the same compound, the TGI (RPMI-8226 leukemia) was greater than 100 µM, the TGI (HCC-2998 colon) was greater than 100 µM and the TGI (SK-MEL-2 melanoma) was greater than 100 µM. For the same compound, the TGI (786-0 renal) was greater than 100 µM, the TGI (SF-539 CNS) was greater than 100 µM and the TGI (HL-60(TB) leukemia) was greater than 100 µM. The TGI (HCT-116 colon) was greater than 100 µM and the TGI (SK-MEL-5 melanoma) was greater than 100 µM.
